Key:
hDAT Y88F/H547A [1] = molecular target: T1, hDAT Y88F/H547A (Homo sapiens, UniProt Q01959, H547A/Y88F); assay: [3H]DA uptake in PC12 cells transfected with Y88F/H547A hDAT; assay type: cell-based
T1 construct: expressed in transfected cells; host or cells: rat PC12 cells (ATCC CRL-1721), pcDNA3.1+
T1 sequence (Q01959 1-620 Y88F/H547A): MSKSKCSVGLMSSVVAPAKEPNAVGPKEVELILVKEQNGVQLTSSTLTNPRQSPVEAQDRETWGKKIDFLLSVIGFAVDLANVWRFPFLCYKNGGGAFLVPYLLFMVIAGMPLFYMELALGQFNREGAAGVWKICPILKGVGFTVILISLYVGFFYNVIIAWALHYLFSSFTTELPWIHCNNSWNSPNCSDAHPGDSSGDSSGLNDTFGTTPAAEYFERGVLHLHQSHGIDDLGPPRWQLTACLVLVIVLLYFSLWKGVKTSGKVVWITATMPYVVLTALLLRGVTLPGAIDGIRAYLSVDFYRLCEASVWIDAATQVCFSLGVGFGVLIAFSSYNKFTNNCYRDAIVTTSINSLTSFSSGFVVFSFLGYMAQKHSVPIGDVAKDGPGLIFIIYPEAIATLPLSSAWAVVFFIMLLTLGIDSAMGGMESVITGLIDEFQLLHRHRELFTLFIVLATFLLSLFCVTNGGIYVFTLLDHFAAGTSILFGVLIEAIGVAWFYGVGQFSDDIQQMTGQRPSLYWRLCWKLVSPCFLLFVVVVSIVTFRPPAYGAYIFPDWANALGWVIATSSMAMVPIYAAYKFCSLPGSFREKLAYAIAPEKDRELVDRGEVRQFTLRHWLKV
Procedure: (§1) In the current study, we used rat pheochromocytoma cells (PC12 cells, CRL-1721, American Type Culture Collection (ATCC), Manassas, VA), which were maintained in Dulbecco’s modified eagle medium (DMEM, Life Technologies, Carlsbad, CA) supplemented with 15% horse serum, 2.5% bovine calf serum, 2 mM glutamine and antibiotics, 100 U/mL penicillin and 100 µg/mL streptomycin. Cells were cultured at 37 °C in a 5% CO2 incubator. Once cells were growing to 100% confluence on plates, cells were seeded at a density of 1 × 10^5 cells/cm^2 in 24-well plates and transfected with WT hDAT or mutants by Lipofectamine 2000 (Life Technologies). Twenty-four hours after transfection, intact cells or cell suspensions were used for experiments.
(§2) Twenty-four hours after transfection, cells in 24-well plates were washed twice with Krebs-Ringer-HEPES (KRH) buffer (final concentration in mM: 125 NaCl, 5 KCl, 1.5 MgSO4, 1.25 CaCl2, 1.5 KH2PO4, 10 D-glucose, 25 HEPES, 0.1 EDTA, 0.1 pargyline, and 0.1 L-ascorbic acid; pH 7.4) and incubated with nomifensine (10 µM, final concentration) as nonspecific uptake for 10 min at room temperature. […] The reaction was terminated by removal of solution from wells and quickly washed three times with ice cold KRH buffer. Cells were then lysed in 500 μL of 1% SDS for an hour and radioactivity was measured using a liquid scintillation counter (Tri-Carb 2900TR; PerkinElmer Life and Analytical Sciences, Waltham, MA).
(§3) In brief, cells were dissociated with trypsin/EDTA (0.25%/0.1%, 1 mL for one 10 cm dish) and resuspended in culture medium and incubated at room temperature for 10 min. The dissociated cells were collected by centrifugation at 400 × g for 5 min at 4 °C and washed once with phosphate-buffered saline followed by additional 5 min centrifugation (400 × g, 4 °C). Finally, the resulted cell pellets were resuspended in KRH assay buffer. […] The update reaction was terminated by immediate filtration through Whatman GF/B glass filters (presoaked with 1 mM pyrocatechol for 3 h) followed by three washes with 3 mL of ice-cold KRH buffer containing pyrocatechol using a Brandel cell harvester (model M-48; Brandel Inc., Gaithersburg, MD). Radioactivity was determined as described above.

hDAT Y88F/H547A [2] = molecular target: T1, hDAT Y88F/H547A; assay: AMPH-stimulated [3H]DA efflux, Y88F/H547A hDAT; assay type: cell-based; set-up: unit not given here; conditions: AMPH 5–250 µM, fractional release of cellular [3H]DA
hDAT H547A [3] = molecular target: T2, hDAT H547A (Homo sapiens, UniProt Q01959, H547A); assay: AMPH-stimulated [3H]DA efflux, H547A hDAT; assay type: cell-based; conditions: AMPH 5–250 µM, fractional release of cellular [3H]DA
T2 construct: expressed in transfected cells; host or cells: rat PC12 cells (ATCC CRL-1721), pcDNA3.1+
T2 sequence (Q01959 whole entry H547A): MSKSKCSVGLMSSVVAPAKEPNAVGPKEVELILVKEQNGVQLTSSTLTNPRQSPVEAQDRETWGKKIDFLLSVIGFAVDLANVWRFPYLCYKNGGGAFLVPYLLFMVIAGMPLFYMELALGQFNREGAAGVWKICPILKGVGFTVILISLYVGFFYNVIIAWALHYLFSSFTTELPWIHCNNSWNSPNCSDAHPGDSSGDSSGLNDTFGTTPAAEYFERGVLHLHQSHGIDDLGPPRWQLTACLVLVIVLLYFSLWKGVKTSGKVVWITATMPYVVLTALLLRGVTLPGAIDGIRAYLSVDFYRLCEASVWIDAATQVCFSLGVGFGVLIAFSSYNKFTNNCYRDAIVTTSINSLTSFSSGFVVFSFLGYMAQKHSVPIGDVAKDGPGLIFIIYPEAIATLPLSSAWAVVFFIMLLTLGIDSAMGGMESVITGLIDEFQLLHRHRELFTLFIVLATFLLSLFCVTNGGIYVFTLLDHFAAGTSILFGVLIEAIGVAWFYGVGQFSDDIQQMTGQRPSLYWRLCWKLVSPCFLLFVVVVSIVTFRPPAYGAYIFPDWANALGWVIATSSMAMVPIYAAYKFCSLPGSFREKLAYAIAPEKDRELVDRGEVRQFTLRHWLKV
Procedure: as §1

hDAT Y88A = molecular target: T3, hDAT Y88A (Homo sapiens, UniProt Q01959, Y88A); assay: AMPH-stimulated [3H]DA efflux, Y88A hDAT; assay type: cell-based; conditions: AMPH 5–250 µM, fractional release of cellular [3H]DA
T3 construct: expressed in transfected cells; host or cells: rat PC12 cells (ATCC CRL-1721)
T3 sequence (Q01959 1-620 Y88A): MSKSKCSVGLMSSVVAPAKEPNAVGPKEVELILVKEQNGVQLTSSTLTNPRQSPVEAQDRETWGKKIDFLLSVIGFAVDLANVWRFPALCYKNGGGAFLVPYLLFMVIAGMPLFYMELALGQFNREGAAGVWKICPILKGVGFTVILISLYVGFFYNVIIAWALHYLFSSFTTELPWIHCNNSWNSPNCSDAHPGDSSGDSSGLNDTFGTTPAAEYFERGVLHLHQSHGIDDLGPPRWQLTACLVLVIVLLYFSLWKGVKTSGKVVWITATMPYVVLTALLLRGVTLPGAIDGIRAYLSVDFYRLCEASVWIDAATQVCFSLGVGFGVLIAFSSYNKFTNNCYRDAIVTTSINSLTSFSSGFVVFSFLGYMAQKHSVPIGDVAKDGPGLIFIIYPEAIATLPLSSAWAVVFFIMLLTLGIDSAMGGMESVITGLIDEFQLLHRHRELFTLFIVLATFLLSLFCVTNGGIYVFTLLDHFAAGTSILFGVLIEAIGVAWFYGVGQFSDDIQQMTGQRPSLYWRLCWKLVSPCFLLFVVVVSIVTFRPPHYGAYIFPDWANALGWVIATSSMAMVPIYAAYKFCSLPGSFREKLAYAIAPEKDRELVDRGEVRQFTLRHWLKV
Procedure: as §1

WT hDAT [4] = molecular target: T4, WT hDAT (Homo sapiens, UniProt Q01959); assay: AMPH-stimulated [3H]DA efflux, WT hDAT; assay type: cell-based; conditions: AMPH 5–250 µM, fractional release of cellular [3H]DA
T4 construct: expressed in transfected cells; host or cells: rat PC12 cells (ATCC CRL-1721), pcDNA3.1+
T4 sequence (Q01959 whole entry): as the sequence (Q01959 whole entry H547A) above, with A547H counted along it
Procedure: as §1

hDAT Y88F = molecular target: T5, hDAT Y88F (Homo sapiens, UniProt Q01959, Y88F); assay: AMPH-stimulated [3H]DA efflux, Y88F hDAT; assay type: cell-based; conditions: AMPH 5–250 µM, fractional release of cellular [3H]DA
T5 construct: expressed in transfected cells; host or cells: rat PC12 cells (ATCC CRL-1721), pcDNA3.1+
T5 sequence (Q01959 1-620 Y88F): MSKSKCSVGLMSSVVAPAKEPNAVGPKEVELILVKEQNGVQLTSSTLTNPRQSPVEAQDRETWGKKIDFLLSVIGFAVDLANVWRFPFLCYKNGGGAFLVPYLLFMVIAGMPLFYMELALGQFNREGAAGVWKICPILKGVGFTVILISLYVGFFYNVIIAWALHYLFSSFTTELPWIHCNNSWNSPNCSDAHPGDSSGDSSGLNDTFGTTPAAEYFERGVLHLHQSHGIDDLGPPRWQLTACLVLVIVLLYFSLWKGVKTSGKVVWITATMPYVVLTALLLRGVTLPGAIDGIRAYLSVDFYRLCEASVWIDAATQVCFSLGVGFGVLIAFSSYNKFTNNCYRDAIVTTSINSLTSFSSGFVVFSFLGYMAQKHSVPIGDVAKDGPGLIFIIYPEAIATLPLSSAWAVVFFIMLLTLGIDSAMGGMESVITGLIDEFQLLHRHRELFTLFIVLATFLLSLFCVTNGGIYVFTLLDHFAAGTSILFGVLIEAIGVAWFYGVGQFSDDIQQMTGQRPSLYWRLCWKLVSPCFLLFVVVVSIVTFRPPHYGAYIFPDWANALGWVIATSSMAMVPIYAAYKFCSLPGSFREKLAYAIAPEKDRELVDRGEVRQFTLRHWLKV
Procedure: as §1

WT hDAT [5] = molecular target: T4, WT hDAT; assay: [3H]DA uptake in PC12 cells transfected with WT hDAT; assay type: cell-based
Procedure: as §1, §2, §3

hDAT Y88F/K92M/H547A = molecular target: T6, hDAT Y88F/K92M/H547A (Homo sapiens, UniProt Q01959, H547A/K92M/Y88F)
T6 sequence (Q01959 1-620 Y88F/K92M/H547A): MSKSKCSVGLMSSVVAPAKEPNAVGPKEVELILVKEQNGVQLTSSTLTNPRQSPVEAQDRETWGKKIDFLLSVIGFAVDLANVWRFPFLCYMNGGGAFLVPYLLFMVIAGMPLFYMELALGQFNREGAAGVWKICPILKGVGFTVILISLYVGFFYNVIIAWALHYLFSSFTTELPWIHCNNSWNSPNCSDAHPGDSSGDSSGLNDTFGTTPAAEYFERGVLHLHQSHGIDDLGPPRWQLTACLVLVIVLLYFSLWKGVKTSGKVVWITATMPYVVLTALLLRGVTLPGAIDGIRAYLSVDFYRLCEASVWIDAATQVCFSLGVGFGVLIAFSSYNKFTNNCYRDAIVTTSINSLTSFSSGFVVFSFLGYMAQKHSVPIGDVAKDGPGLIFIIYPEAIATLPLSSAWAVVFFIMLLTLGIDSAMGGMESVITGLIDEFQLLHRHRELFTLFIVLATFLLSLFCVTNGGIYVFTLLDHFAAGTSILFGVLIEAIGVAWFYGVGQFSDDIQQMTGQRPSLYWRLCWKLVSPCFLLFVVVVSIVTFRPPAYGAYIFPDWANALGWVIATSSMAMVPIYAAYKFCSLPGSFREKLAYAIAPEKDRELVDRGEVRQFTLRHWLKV
Procedure: as §1
Twenty-four hours after transfection, cells in 24-well plates were washed twice with Krebs-Ringer-HEPES (KRH) buffer (final concentration in mM: 125 NaCl, 5 KCl, 1.5 MgSO4, 1.25 CaCl2, 1.5 KH2PO4, 10 D-glucose, 25 HEPES, 0.1 EDTA, 0.1 pargyline, and 0.1 L-ascorbic acid; pH 7.4) and incubated with nomifensine (10 µM, final concentration) as nonspecific uptake for 10 min at room temperature. […] Cells were then lysed in 500 μL of 1% SDS for an hour and radioactivity was measured using a liquid scintillation counter (Tri-Carb 2900TR; PerkinElmer Life and Analytical Sciences, Waltham, MA).

hDAT H547A [6] = molecular target: T2, hDAT H547A; conditions: 1 µM PMA; H547A mutant; cited from earlier work
WT hDAT [7] = molecular target: T4, WT hDAT; conditions: 1 µM PMA; cited from earlier work
hDAT Y88F/H547A [8] = molecular target: T1, hDAT Y88F/H547A; assay: [3H]WIN 35,428 binding in intact PC12 cells transfected with Y88F/H547A hDAT; conditions: Zn2+ 10 and 100 µM
WT hDAT [9] = molecular target: T4, WT hDAT; assay: [3H]WIN 35,428 binding in intact PC12 cells transfected with WT hDAT
[10] = substrate: NCCc1ccc(O)c(O)c1; assay: cells, lysate or membranes; conditions: other: PC12 cells, Y88F/H547A; pH 7.4; 37.0 °C

## CC(N)Cc1ccccc1 (centres unmarked) [AMPH, amphetamine]
hDAT Y88F/H547A [1]; AMPH 1 µM, Y88F/H547A
  AMPH-induced decrease of Vmax of [3H]DA uptake vs control: 42%
  Vmax of [3H]DA uptake in presence of AMPH: 10.9 ± 1.33 pmol/min/10^5 cells
hDAT Y88F/H547A [2]
  Vmax of AMPH-stimulated [3H]DA efflux: 0.20 ± 0.03
hDAT H547A [3]
  Vmax of AMPH-stimulated [3H]DA efflux: 0.22 ± 0.04
hDAT Y88A
  Vmax of AMPH-stimulated [3H]DA efflux: 0.29 ± 0.01
WT hDAT [4]
  Vmax of AMPH-stimulated [3H]DA efflux: 0.42 ± 0.03
hDAT Y88F
  Vmax of AMPH-stimulated [3H]DA efflux: 0.28 ± 0.06
WT hDAT [5]; AMPH 1 µM, WT hDAT
  AMPH-induced decrease of Vmax of [3H]DA uptake vs control: 32%
  Vmax of [3H]DA uptake in presence of AMPH: 7.80 ± 0.97 pmol/min/10^5 cells

## NCCc1ccc(O)c(O)c1 [DA, Dopamine]
hDAT Y88F/K92M/H547A; PC12 cells
  Vmax of [3H]DA uptake: 0.5 ± 0.31 pmol/min/10^5 cells
hDAT Y88F/K92M/H547A; read-out: Km of [3H]DA uptake, PC12 cells
  Km: 1.89 ± 1.25 µM
hDAT Y88F/H547A [1]; AMPH experiment, in the absence of AMPH, Y88F/H547A
  Vmax of [3H]DA uptake: 18.9 ± 2.81 pmol/min/10^5 cells
hDAT Y88F/H547A [1]; PC12 cells, Y88F/H547A
  Vmax of [3H]DA uptake: 24.06 ± 4.32 pmol/min/10^5 cells
WT hDAT [5]; AMPH experiment, in the absence of AMPH, WT hDAT
  Vmax of [3H]DA uptake: 11.5 ± 0.94 pmol/min/10^5 cells
WT hDAT [5]; PC12 cells, WT hDAT
  Km: 1.21 ± 0.17 µM
  Vmax of [3H]DA uptake: 12.52 ± 0.68 pmol/min/10^5 cells

## CCCCCCCCCCCCCC(=O)O[C@@H]1[C@@H](C)[C@@]2(O)[C@@H](C=C(CO)C[C@]3(O)C(=O)C(C)=C[C@@H]23)[C@@H]2C(C)(C)[C@]12OC(C)=O [PMA, phorbol 12-myristate 13-acetate]
hDAT Y88F/H547A [1]
  Reduction of Km of [3H]DA uptake vs control: 63%
  Reduction of Vmax of [3H]DA uptake vs vehicle control: 60%
hDAT H547A [6]
  Decrease in Vmax of DA uptake vs control: 60%
WT hDAT [7]
  Decrease in Vmax of DA uptake vs control: 40%
WT hDAT [5]
  Reduction of Km of [3H]DA uptake vs control: 53%
  Reduction of Vmax of [3H]DA uptake vs vehicle control: 51%

## [Cl-].[Cl-].[Zn+2] [Zn^2+, ZnCl2]
hDAT Y88F/H547A [1]; Zn2+ 10 µM, Y88F/H547A
  Reduction of [3H]DA uptake vs control (absence of Zn2+): 60%
hDAT Y88F/H547A [1]; Zn2+ 100 µM, Y88F/H547A
  Reduction of [3H]DA uptake vs control (absence of Zn2+): 71%
hDAT Y88F/H547A [8]
  Zn2+-induced increase in [3H]WIN 35,428 binding compared with WT hDAT: significantly diminished
WT hDAT [9]; Zn2+ 10 µM
  Increase of [3H]WIN35,428 binding vs control (absence of Zn2+): 49%
WT hDAT [9]; Zn2+ 100 µM
  Increase of [3H]WIN35,428 binding vs control (absence of Zn2+): 69%
WT hDAT [5]; Zn2+ 10 µM, WT hDAT
  Reduction of [3H]DA uptake vs control (absence of Zn2+): ~ 40%
WT hDAT [5]; Zn2+ 100 µM, WT hDAT
  Reduction of [3H]DA uptake vs control (absence of Zn2+): ~ 40%

## rTat1–86: recombinant HIV-1 transactivator of transcription protein, residues 1–86 (Diatheva)
hDAT Y88F/H547A [1]; 140 nM rTat1–86, 20 min preincubation, Y88F/H547A, p > 0.05 vs control
  Tat-induced reduction of [3H]DA uptake relative to control: attenuated
WT hDAT [5]; 140 nM rTat1–86, 20 min preincubation, WT hDAT
  Reduction of specific [3H]DA uptake relative to control: 31%

B1: hDAT Y88F/H547A (Homo sapiens; H547A/Y88F) (protein)
chain: MSKSKCSVGLMSSVVAPAKEPNAVGPKEVELILVKEQNGVQLTSSTLTNPRQSPVEAQDRETWGKKIDFLLSVIGFAVDLANVWRFPFLCYKNGGGAFLVPYLLFMVIAGMPLFYMELALGQFNREGAAGVWKICPILKGVGFTVILISLYVGFFYNVIIAWALHYLFSSFTTELPWIHCNNSWNSPNCSDAHPGDSSGDSSGLNDTFGTTPAAEYFERGVLHLHQSHGIDDLGPPRWQLTACLVLVIVLLYFSLWKGVKTSGKVVWITATMPYVVLTALLLRGVTLPGAIDGIRAYLSVDFYRLCEASVWIDAATQVCFSLGVGFGVLIAFSSYNKFTNNCYRDAIVTTSINSLTSFSSGFVVFSFLGYMAQKHSVPIGDVAKDGPGLIFIIYPEAIATLPLSSAWAVVFFIMLLTLGIDSAMGGMESVITGLIDEFQLLHRHRELFTLFIVLATFLLSLFCVTNGGIYVFTLLDHFAAGTSILFGVLIEAIGVAWFYGVGQFSDDIQQMTGQRPSLYWRLCWKLVSPCFLLFVVVVSIVTFRPPAYGAYIFPDWANALGWVIATSSMAMVPIYAAYKFCSLPGSFREKLAYAIAPEKDRELVDRGEVRQFTLRHWLKV
[10]
  Km: 4.25 ± 1.05 µM

From paper PMC6405875 (Scientific Reports, 2019)
